Publication PMC7587962, “Evaluation of Cytotoxicity and α-Glucosidase Inhibitory Activity of Amide and Polyamino-Derivatives of Lupane Triterpenoids” (Molecules, 2020)
Read-outs that look alike come from different tables or passages of the source.

Legend:
[1] = test system: methicillin-resistant Staphylococcus aureus (MRSA); experiment: Antibacterial growth inhibition, S. aureus; assay type: cell-based; details: for inhibition at 32 µg/mL: Staphylococcus aureus, ATCC 43300 / MRSA, S. aureus Strain ATCC 43300
[2] = test system: 60 human tumor cell lines; experiment: cells
Candida albicans = experiment: Antifungal growth inhibition, C. albicans; details: ATCC90028, read-out: % Growth inhibition
Protocol: (§1) The antifungal activity was determined against Candida albicans and Cryptococcus neoformans.
(§2) Samples were prepared in DMSO and water to a final testing concentration of 32 µg/mL, in 384-well, non-binding surface plate (NBS) for each bacterial/fungal strain, and in duplicate (n = 2) and keeping the final DMSO concentration to a maximum of 1% DMSO. All the sample-preparation was done using liquid handling robots.
(§3) Fungi strains were cultured for 3 days on Yeast Extract-Peptone Dextrose (YPD) agar at 30 °C. A yeast suspension of 1 × 10^6 to 5 × 10^6 CFU/mL (as determined by OD530) was prepared from five colonies. The suspension was subsequently diluted and added to each well of the compound-containing plates giving a final cell density of fungi suspension of 2.5 × 10^3 CFU/mL and a total volume of 50 µl. All plates were covered and incubated at 35 °C for 24 h without shaking.
(§4) The absorbance was measured using a Biotek Synergy HTX plate reader. The percentage of growth inhibition was calculated for each well, using negative control (media only) and positive control (fungi without inhibitors) on the same plate. The significance of the inhibition values was determined by modified Z-scores, calculated using the median and MAD of the samples (no controls) on the same plate. Samples with an inhibition value above 80% and Z-score above 2.5 for either replicate (n = 2 on different plates) were classed as actives. Samples with inhibition values between 50% and 80% and a Z-score above 2.5 for either replicate were classed as partial actives.

Acinetobacter baumannii = experiment: Antibacterial growth inhibition, A. baumannii; assay type: cell-based; details: ATCC27853, A. baumannii Strain ATCC 27853
Escherichia coli = experiment: Antibacterial growth inhibition, E. coli; assay type: cell-based; details: ATCC25922, E. coli Strain ATCC 25922
SR = experiment: NCI-60 SRB screen: leukemia SR; assay type: cell-based; details: Homo sapiens, 48 h, single dose 10 µM, read-out: Percentage Cell Growth
Klebsiella pneumonia = experiment: Antibacterial growth inhibition, K. pneumonia; assay type: cell-based; details: Klebsiella pneumoniae, ATCC700603, K. pneumonia Strain ATCC 700603
Cryptococcus neoformans = experiment: Antifungal growth inhibition, C. neoformans; set-up: activity class in primary screening: dose or concentration left out as unconfirmed; details: for inhibition at 32 µg/mL: Cryptococcus neoformans, ATCC208821, read-out: % Growth inhibition
Protocol: as §1, §2, §3, §4

Pseudomonas aeruginosa = experiment: Antibacterial growth inhibition, P. aeruginosa; assay type: cell-based; details: P. aeruginosa Strain 19606
[3] = test system: pathogenic microorganisms; experiment: Primary antimicrobial screening, five bacterial strains and two fungi; set-up: dose or concentration left out as unconfirmed
Protocol: The antifungal activity was determined against Candida albicans and Cryptococcus neoformans. […] Samples with inhibition value above 80% were classed as actives. Samples with inhibition values between 50 and 80% were classed as partial actives.
as §2
All bacteria were cultured in cation-adjusted Mueller Hinton broth (CAMHB) at 37 °C overnight. A sample of each culture was then diluted 40-fold in fresh broth and incubated at 37 °C for 1.5–3 h. The resultant mid-log phase cultures were diluted (CFU/ ml measured by OD600), then added to each well of the compound containing plates, giving a cell density of 5 × 10^5 CFU/mL and a total volume of 50 µl. All the plates were covered and incubated at 37 °C for 18 h without shaking.
Inhibition of bacterial growth was determined measuring absorbance at 600 nm (OD600), using a Tecan M1000 Pro monochromator plate reader. The percentage of growth inhibition was calculated for each well, using negative control (media only) and positive control (bacteria without inhibitors) on the same plate as references. The significance of the inhibition values was determined by modified Z-scores, calculated using the median and MAD of the samples (no controls) on the same plate. Samples with inhibition value above 80% and Z-score above 2.5 for either replicate were classed as actives. […]
Fungi strains were cultured for 3 days on Yeast Extract-Peptone Dextrose (YPD) agar at 30 °C. A yeast suspension of 1 × 10^6 to 5 × 10^6 CFU/mL (as determined by OD530) was prepared from five colonies. […]
The absorbance was measured using a Biotek Synergy HTX plate reader. The percentage of growth inhibition was calculated for each well, using negative control (media only) and positive control (fungi without inhibitors) on the same plate. […]

[4] = test system: Rat Liver ER Neutral α-Glucosidase; experiment: Endoplasmic reticulum α-glucosidase activity assay; assay type: biochemical
Text: Betulinic acid inhibits yeast α-glucosidase activity and interferes with N-linked glycan modifications to cell-surface intercellular adhesion molecule-1 (ICAM-1) in human lung carcinoma A549 cells in a similar manner to castanospermine, an inhibitor of endoplasmic reticulum α-glucosidases I and II [66]. […] Taken together, these considerations prompted us to evaluate a series of lupanes with amide function or polyamine chain 11, 12, 16, 18, and 22–26 for α-glucosidase inhibition. Initially, they were screened against α-glucosidase of S. cerevisiae as an accessible and high-throughput model. Confirmatory experiments were performed on isolated rough endoplasmic reticulum vesicles from rat liver, which contain neutral α-glucosidases I and II in a membrane-bound form.
Endoplasmic reticulum was isolated from hepatocytes of decapitated male Sprague-Dawley rats, which were starved overnight and sacrificed the next morning. All experiments were approved by Volgograd regional ethic committee. The whole procedure was performed at 4 °C. In brief, a fresh tissue sample from an animal was washed twice with 10 mL of PBS to remove residual blood. The tissue was placed on a paper towel in order to absorb excess liquid and blood clots, if present. It was cut further into small pieces (1.5–2 cm) and washed once more. […] Homogenate was centrifuged at 1000× g for 10 min at 4 °C. After removal of the floating lipid layer by aspiration, supernatant was separated and centrifuged at 12,000× g for 15 min. at 4 °C. The supernatant fraction, which is the post mitochondrial fraction (PMF), was used for isolation of rough endoplasmic reticulum (RER) enriched microsomes by precipitation with 8 mM CaCl2 added dropwise. The final concentration of CaCl2 was 7 mM. Resulting sample was centrifuged at 8000 g for 10 min. at 4 °C. The supernatant was discarded, and the pellet was suspended in isotonic extraction buffer (0.3 mL of buffer for each g of original tissue). The suspension was homogenized completely to afford RER enriched microsomes. In a 96-well flat transparent plate 25 µL of the isolated RER microsomes were incubated with 50 µL of test compounds in 67 mM PBS (pH 6.8) at 37 °C for 10 min. Then, p-nitrophenyl-α-D-glucopyranoside (Sigma #N1377, St. Louis, MO, USA) was added to 1 mM final concentration and increase in absorbance was recorded for 42 min at 405 nm wavelength with Infinite M200 PRO microplate reader (Tecan, Austria). Concentration of RER microsomes was adjusted to achieve an increase in optical density of ~0.2 in control samples after 30 min. of incubation. Test compounds were prepared as described above for the yeast α-glucosidase assay.

Yeast α-Glucosidase = experiment: Yeast α-glucosidase activity assay; assay type: biochemical, S. cerevisiae; details: pH 6.8, 37 °C, p-nitrophenyl-α-D-glucopyranoside 1 mM; read-out: Yeast α-Glucosidase, IC50 ± SE
Protocol: Taken together, these considerations prompted us to evaluate a series of lupanes with amide function or polyamine chain 11, 12, 16, 18, and 22–26 for α-glucosidase inhibition. Initially, they were screened against α-glucosidase of S. cerevisiae as an accessible and high-throughput model. Confirmatory experiments were performed on isolated rough endoplasmic reticulum vesicles from rat liver, which contain neutral α-glucosidases I and II in a membrane-bound form.
In a 96-well flat transparent plate, the 0.12 U/mL enzyme solution (EC 3.2.1.20, expressed in S. cerevisiae, Sigma #G0660, St. Louis, MO, USA) was incubated with test compounds in 67 mM PBS (pH 6.8) at 37 °C for 5 min. Then, p-nitrophenyl-α-D-glucopyranoside (Sigma #N1377, St. Louis, MO, USA) was added to 1 mM final concentration and an increase in absorbance was recorded for 15 min at 405 nm wavelength with Infinite M200 PRO microplate reader (Tecan, Austria). Test compounds were dissolved in DMSO and diluted to the desired concentration in 67 mM PBS (pH 6.8) supplemented with 0.01% Tween 80 to avoid aggregation. Final DMSO concentration was <0.25% in sample wells, and it was also introduced in control and blank wells. […] Due to the absence of normal distribution of data, a Mann–Whitney U-test was used to determine statistical significance versus enzyme control using GraphPad Prism 8.0.1.

Structure (SMILES)	inhibition at 32 µg/mL [1]	activity at 10 µM ([2]; read-out: Mean Growth, %)	activity at 10 µM ([2]; read-out: Range of Growth, %)	inhibition at 32 µg/mL (Candida albicans)	inhibition at 32 µg/mL (Acinetobacter baumannii)	inhibition at 32 µg/mL (Escherichia coli)	activity at 10 µM (SR)	inhibition at 32 µg/mL (Klebsiella pneumonia)	inhibition at 32 µg/mL (Cryptococcus neoformans)	inhibition at 32 µg/mL (Pseudomonas aeruginosa)	inhibition of growth of pathogenic microorganisms [3]	Rat Liver ER Neutral α-Glucosidase Inhibition, m ± SD ([4]; 10 μM)	Rat Liver ER Neutral α-Glucosidase Inhibition, m ± SD ([4]; 100 μM)	activity class in primary screening ([1]; methicillin-resistant S. aureus, one concentration of 32 µg/mL)	IC50 (Yeast α-Glucosidase)	activity class in primary screening (Cryptococcus neoformans; C. neoformans, one concentration)
C=C(C)[C@@H]1CC[C@]2(C(=O)N3CCCNCC3)CC[C@]3(C)[C@H](CC[C@@H]4[C@@]5(C)CCC(=O)C(C)(C)[C@@H]5CC[C@]43C)[C@@H]12 [Compound 2, 28-(1,4-Diazepan-1-yl)-28-oxolup-20(29)-en-3-one]	40.3%	89.5%	8.04 to 127%	4.14%	33.1%	1.96%	8.04%	0.98%	-5.9%	8.34%	did not inhibit the growth	–	–	–	–	–
C=C(C)[C@@H]1CC[C@]2(C(=O)NCCNCCN)CC[C@]3(C)[C@H](CC[C@@H]4[C@@]5(C)CCC(=O)C(C)(C)[C@@H]5CC[C@]43C)[C@@H]12 [Compound 12]	71.8%	98.9%	59.1 to 141%	11.7%	19.5%	-9.57%	–	9.2%	62.6%	7.72%	–	10.21 ± 3.49%	23.59 ± 1.34 %	partial activity	> 100 µM	partial activity
C=C(C)[C@@H]1CC[C@]2(C(=O)NCCCNCCCN)CC[C@]3(C)[C@H](CC[C@@H]4[C@@]5(C)CCC(=O)C(C)(C)[C@@H]5CC[C@]43C)[C@@H]12 [Compound 16]	–	101%	59.3 to 141%	–	–	–	–	–	–	–	–	9.05 ± 6.68%	14.94 ± 6.31%	–	> 100 µM	–
C=C(C)[C@@H]1CC[C@]2(C=NCCCNCCCCN)CC[C@]3(C)[C@H](CC[C@@H]4[C@@]5(C)CCC(=O)C(C)(C)[C@@H]5CC[C@]43C)[C@@H]12 [Compound 22]	–	102%	80.5 to 123%	–	–	–	–	–	–	–	–	31.42 ± 7.96 %	58.52 ± 8.21 %	–	> 100 µM	–
C=C(C)[C@@H]1CC[C@]2(C=NCCCNCCCCN)CC[C@]3(C)[C@H](CC[C@@H]4[C@@]5(C)CCCNC(C)(C)[C@@H]5CC[C@]43C)[C@@H]12 [Compound 24]	–	93.6%	21.7 to 132%	–	–	–	21.7%	–	–	–	–	26.96 ± 2.33 %	54.62 ± 15.38 %	–	> 100 µM	–
C=C(C)[C@@H]1CC[C@]2(C(=O)OC)CC[C@]3(C)[C@H](CC[C@@H]4[C@@]5(C)C/C(=C/NC(N)=O)C(=O)C(C)(C)[C@@H]5CC[C@]43C)[C@@H]12 [Compound 25]	19.8%	91.7%	21.2 to 112%	14%	40.9%	-5.34%	21.2%	2.44%	-7.93%	-8.92%	did not inhibit the growth	8.76 ± 9.63%	9.62 ± 6.94%	–	53.3 ± 5.7 µM	–
C=C(C)[C@@H]1CC[C@]2(C(=O)OC)CC[C@]3(C)[C@H](CC[C@@H]4[C@@]5(C)C/C(=C/NC(N)=S)C(=O)C(C)(C)[C@@H]5CC[C@]43C)[C@@H]12 [Compound 26]	12.7%	90.5%	60.9 to 126%	5.83%	28.2%	-7.03%	–	-3.89%	-13%	-4.64%	did not inhibit the growth	11.63 ± 9.09%	26.60 ± 13.03%	–	> 100 µM	–
